Patent publication US20240285502A1, “HAIR GROWTH AGENT” (ADJUVANT HOLDINGS CO., LTD., priority 2021, published 2024)

System: VEGF gene expression in human dermal papilla cells
Assay: Evaluation of human dermal papilla cell VEGF gene expression (real-time PCR)
Format: cell-based
Conditions: 72 hours stimulation, relative to negative control group, GAPDH internal standard, FIG. 1
Method: The VEGF gene is expressed in dermal papilla cells, and contributes to expression of such effects as increase in hair shaft diameter and improving maximum hair shaft length and improving hair shaft elongation rate and hair shaft growth promotion at head hair, beard, eyebrows, and/or eyelashes. Human dermal papilla cells were therefore used, and evaluation was carried out with respect to increase in VEGF gene expression for the respective components. Human dermal papilla cells (Catalog No. CA60205a; derived from person; Toyobo Co., Ltd. (Japan)) were purchased, testing and evaluation being carried out with maintenance and culture of cells being performed as described in the protocol. As drugs for testing, drug solutions of the following respective concentrations (final concentrations) were prepared and used. • Comparative Example 1: 30 μM minoxidil • Working Example 1: 0.3125 μM phytosphingosine • Working Example 2: 1.25 μM phytosphingosine • Working Example 3: Liquid mixture of 30 μM minoxidil and 1.25 μM phytosphingosine A 24-well plate was seeded with human dermal papilla cells so as to obtain 6×10^3 thereof per well. Following culture for 1 day within a CO2 incubator (5% CO2; 37° C.), the culture medium was replaced with culture medium which contained the respective drugs for testing. The cell plate was thereafter returned to the CO2 incubator, and this was further cultured for 72 hours. […] The GAPDH gene was used as an internal standard, the amount of VEGF gene expression being calculated relative to the negative control group. […] Concentration of the recovered RNA was measured using a NanoDrop Lite (Catalog No. ND-LITE; Thermo Fisher Scientific K.K.), and this was stored at -80° C. until the following cDNA creation procedure. […] II cDNA synthesis 5× Ready Mix (Catalog No. NE-LS64; Nippon Genetics Co., Ltd. (Japan)) was used to synthesize cDNA. […] II cDNA synthesis 5× Ready Mix was added to 16 μL of this sample solution, and this was agitated by vortexing. […]

Structure (SMILES) | change in amount of expression of the VEGF gene
CCCCCCCCCCCCCC[C@@H](O)[C@@H](O)[C@@H](N)CO [Working Example 1, phytosphingosine] | increase in dosage-dependent fashion in the amount of expression of the VEGF gene as compared with the control group
CCCCCCCCCCCCCC[C@@H](O)[C@@H](O)[C@@H](N)CO [Working Example 2, phytosphingosine] | increase in dosage-dependent fashion in the amount of expression of the VEGF gene as compared with the control group
CCCCCCCCCCCCCC[C@@H](O)[C@@H](O)[C@@H](N)CO [phytosphingosine] | significantly greater than that which was produced as a result of action of minoxidil
